Experimental data taken from patent US10760110B2, “Antibiotic testing and screening system” (priority 2017, dated 2020).
Like-named read-outs stand apart in the source and are kept apart here.

Assays:
[1] = tested on: K. pneumoniae NVT1001 and its GyrA/ParC and ΔramR mutants; experiment: Etest MIC of quinolones, GyrA/ParC mutations and AcrAB-TolC overexpression (ΔramR) (Table 10); format: cell-based; settings: Klebsiella pneumoniae
Description: DNA fragments of the entire gyrA and parC sequences along with their flanking regions were amplified from K. pneumoniae strain NVT1001 using PCR with specific primer pairs and then cloned into the plasmid pUT-KB. The QuikChange site-directed mutagenesis kit (Stratagene) was used to generate mutations in the gyrA and parC genes in the plasmid using the methods described by the manufacturer. For homologous recombination, plasmids containing mutations in the gyrA or parC gene were transformed into E. coli S17-1 λpir^23 via electroporation and mobilized into K. pneumoniae strain NVT1001 via conjugation. Single-crossover strains were selected from BIND plates supplemented with kanamycin (50 mg/L), as the growth of non-K. pneumoniae contaminants is suppressed on BIND plates.^24 After the kanamycin-resistant transconjugants were selected, the insertion of plasmids was verified via PCR. After incubation in 20 mL BHI broth for 6 hours at 37° C. in the absence of kanamycin, the fully grown cultures were spread onto LB agar plates supplemented with 10% sucrose. After the double crossover occurred, the sucrose-resistant and kanamycin-susceptible colonies were selected, and the gene mutations were confirmed via PCR.
(§1) The MICs of antibiotics were determined using the Etest (Biodisk AB, Sweden) according to the manufacturer's instructions. The MICs from the Etest, which fall between standard two-fold dilutions, were rounded up to the next highest two-fold value. The MICs of ceftazidime and cefotaxime against K. pneumoniae NVT1001 harbouring the pACYC177 plasmid with blaOXA-48 were further determined using a broth microdilution test according to the recommendations of the CLSI,^25 and the results were interpreted according to the breakpoints established by the CLSI in 2017.^25 Meanwhile, due to the lack of CLSI breakpoints in 2016 and 2017, the results for cephalothin were interpreted according to the breakpoints established by the CLSI in 2015,^26 and the results for moxifloxacin were interpreted according to the breakpoints established by the EUCAST in 2017.^27

[2] = tested on: A. baumannii KW1 and its GyrA/ParC mutants; experiment: Etest MIC of quinolones, GyrA and/or ParC mutations (Table 17); format: cell-based; settings: Acinetobacter baumannii
Description: DNA fragments of the entire adeR, adeS, gyrA and parC along with their flanking regions were amplified from A. baumannii KW1 using PCR with specific primer pairs and then cloned into plasmid pUT-KB. The QuikChange site-directed mutagenesis kit (Stratagene) was used to generate mutations in the adeR, adeS, gyrA and parC genes in the plasmids using the methods described by the manufacturer. For homologous recombination, plasmids containing mutations in the adeR, adeS, gyrA or parC gene were transformed into E. coli S17-1 λpir^23 via electroporation and mobilized into A. baumannii KW1 via conjugation. Single-crossover strains were selected from Luria-Bertani (LB) plates supplemented with cefotaxime (1 μg/ml) and kanamycin ([…]), as the growth of non-A. baumannii contaminants is suppressed by cefotaxime (1 μg/ml). The kanamycin-resistant transconjugants were selected and the insertion of plasmids was verified via PCR. After incubation in 20 ml brain heart infusion (BHI) broth for 6 hours in the absence of kanamycin at 37° C., the fully grown cultures were spread onto LB plates supplemented with 10% sucrose. After the double crossover occurred, the sucrose-resistant and kanamycin-susceptible colonies were selected, and the gene mutations were confirmed via PCR.
as §1

SMILES: C[C@H]1COc2c(N3CCN(C)CC3)c(F)cc3c(=O)c(C(=O)O)cn1c23 [Levofloxacin, levofloxacin]
- MIC ([1]; D87N mutant (GyrA D87N)): 0.5 mg/L
- MIC ([1]; D87N/S80I mutant): 0.5 mg/L
- MIC ([1]; NVT1001, read-out: MIC): 0.06 mg/L
- MIC ([1]; S80I mutant (ParC S80I)): 0.125 mg/L
- MIC ([1]; S83F mutant (GyrA S83F)): 0.5 mg/L
- MIC ([1]; S83F/D87N mutant): 0.5 mg/L
- MIC ([1]; S83F/D87N/S80I mutant): 8 mg/L
- MIC ([1]; S83F/S80I mutant): 0.5 mg/L
- MIC ([1]; S83I mutant (GyrA S83I)): 0.5 mg/L
- MIC ([1]; S83I/D87N mutant): 1 mg/L
- MIC ([1]; S83I/D87N/S80I mutant): 8 mg/L
- MIC ([1]; S83I/S80I mutant): 2 mg/L
- MIC ([1]; S83L mutant (GyrA S83L)): 0.5 mg/L
- MIC ([1]; S83L/D87N mutant): 0.5 mg/L
- MIC ([1]; S83L/D87N/S80I mutant): 8 mg/L
- MIC ([1]; S83L/S80I mutant): 1 mg/L
- MIC ([1]; S83Y mutant (GyrA S83Y)): 0.5 mg/L
- MIC ([1]; S83Y/D87N mutant): 0.5 mg/L
- MIC ([1]; S83Y/D87N/S80I mutant): 4 mg/L
- MIC ([1]; S83Y/S80I mutant): 1 mg/L
- MIC ([1]; ΔramR mutant): 1 mg/L
- MIC ([1]; ΔramR/S83I mutant): 16 mg/L
- MIC ([1]; ΔramR/S83I/D87N/S80I mutant): > 32 mg/L
- MIC ([1]; ΔramR/S83I/S801 mutant): > 32 mg/L
- MIC ([2]; E84K mutant): 0.19 mg/L
- MIC ([2]; G78C mutant): 0.19 mg/L
- MIC ([2]; KW1, read-out: MIC): 0.19 mg/L
- MIC ([2]; S80L mutant): 0.19 mg/L
- MIC ([2]; S80W mutant): 0.19 mg/L
- MIC ([2]; S80Y mutant): 0.19 mg/L
- MIC ([2]; S83L mutant): 1 mg/L
- MIC ([2]; S83L/E84K mutant): > 32 mg/L
- MIC ([2]; S83L/G78C mutant): 32 mg/L
- MIC ([2]; S83L/S80L mutant): > 32 mg/L
- MIC ([2]; S83L/S80W mutant): > 32 mg/L
- MIC ([2]; S83L/S80Y mutant): > 32 mg/L
